Laboratory results: US9884063B2, “Amido-substituted azole compounds” (Bayer Pharma Aktiengesellschaft, priority 2014, dated 2018)

Key:
TNKS2 = target: T1, TNKS2 (Homo sapiens, UniProt Q9H2K2); experiment: Modified TNKS2 Assay 2 (auto-parsylation, [3H]-NAD+ SPA); format: biochemical; details: 6 nM TNKS2, 96 well
T1 sequence (Q9H2K2 1-1166): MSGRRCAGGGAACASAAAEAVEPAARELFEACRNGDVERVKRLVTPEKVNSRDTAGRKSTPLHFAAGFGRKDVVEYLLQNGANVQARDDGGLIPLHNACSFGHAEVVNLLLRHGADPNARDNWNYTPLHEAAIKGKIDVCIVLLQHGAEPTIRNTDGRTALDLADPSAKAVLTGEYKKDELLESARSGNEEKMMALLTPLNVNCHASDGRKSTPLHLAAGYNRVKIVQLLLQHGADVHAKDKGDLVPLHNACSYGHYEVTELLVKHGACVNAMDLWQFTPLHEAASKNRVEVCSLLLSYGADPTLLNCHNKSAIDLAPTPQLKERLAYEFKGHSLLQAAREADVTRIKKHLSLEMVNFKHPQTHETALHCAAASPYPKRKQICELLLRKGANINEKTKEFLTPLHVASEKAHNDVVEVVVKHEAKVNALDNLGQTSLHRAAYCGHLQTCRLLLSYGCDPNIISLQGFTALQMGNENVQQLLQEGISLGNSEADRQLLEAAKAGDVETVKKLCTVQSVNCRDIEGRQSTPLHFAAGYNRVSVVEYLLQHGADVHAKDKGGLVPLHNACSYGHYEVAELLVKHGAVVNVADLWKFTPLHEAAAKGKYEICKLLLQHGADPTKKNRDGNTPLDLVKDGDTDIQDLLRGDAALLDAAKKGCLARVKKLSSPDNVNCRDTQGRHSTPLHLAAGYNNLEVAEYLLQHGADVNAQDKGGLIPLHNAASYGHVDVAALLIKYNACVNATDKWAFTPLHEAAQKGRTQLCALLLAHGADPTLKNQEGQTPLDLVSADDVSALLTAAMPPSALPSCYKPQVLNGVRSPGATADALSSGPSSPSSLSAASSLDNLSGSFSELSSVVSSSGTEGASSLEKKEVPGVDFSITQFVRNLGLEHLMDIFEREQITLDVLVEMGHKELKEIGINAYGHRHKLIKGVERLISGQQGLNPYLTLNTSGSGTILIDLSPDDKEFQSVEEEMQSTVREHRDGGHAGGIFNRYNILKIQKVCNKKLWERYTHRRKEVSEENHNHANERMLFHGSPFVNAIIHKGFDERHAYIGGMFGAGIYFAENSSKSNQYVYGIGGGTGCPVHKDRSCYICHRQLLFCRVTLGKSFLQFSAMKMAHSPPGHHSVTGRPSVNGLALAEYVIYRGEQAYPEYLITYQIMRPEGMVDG
Method: The potency of selected compounds according to the invention was assessed applying an modified in vitro inhibition assay. Here, the TNKS2 catalyzed NAD^+-dependent ribosylation of the enzyme itself (auto-parsylation) was detected using [^3H]-NAD^+ as substrate and applying the scintillation proximity assay (SPA) method to detect tritium-labeled, parsylated TNKS2. The intensity of the readout signal is proportional to the incorporated [^3H]-NAD^+. Inhibition of TNKS2 leads to a decreased incorporation of [^3H]-NAD^+ and consequently to a lower readout signal intensity. The concentration of a test compound which inhibits the enzyme activity by 50% (corresponds to half of the normed readout signal intensity) is reported as IC50.
The assay was conducted in a 96 well MTP format with the identical TNKS2 enzyme sample and NAD^+ sample as in the histone ribosylation assay with the following modifications: TNKS2 enzyme sample was diluted with a modified assay buffer (50 mM MES pH 7.0, 1 mM DTT, 0.01% Triton X-100) to a final concentration of 6 nM TNKS2 and 10×NAD^+ solution was diluted with the modified assay buffer (s. above) to a final 0.445×NAD^+ solution doped with 100 Bq/ul [^3H]-NAD^+ [Catalog #NET443H050UC, Perkin Elmer, Waltham, Mass., USA]. Substrate solution (10 ul) was incubated with different test compound concentrations (2.5 ul in 10% DMSO in modified assay buffer) or control (2.5 ul 10% DMSO in modified assay buffer only) and enzyme (10 ul) over night at room temperature. Incorporated tritium was measured after addition of 50 ul SPA beads (1 mg/ml) [Catalog #RPNQ0095 20 mg/ml, Perkin Elmer, Waltham, Mass., USA; diluted 1:10 with Dulbecco's phosphate buffered saline, PBS Catalog #D8537, Sigma-Aldrich, Steinheim, Germany] and detection of the photon emission with a beta count plate reader [Wallac MicroBeta®, Perkin Elmer, Waltham, Mass., USA].

[1] = test system: HEK293 FOP control reporter cell line; experiment: HEK293 FOP Assay (FOP control vector luciferase reporter); format: cell-based; details: Homo sapiens
Method: In a parallel approach, HEK293 cells were cotransfected with the FOP control vector and pcDNA3. The FOP vector is identical to the TOP construct, but it contains instead of functional TCF elements a randomized, non-functional sequence. For this transfection a stable transfected cell line was generated as well, based on selection with Geneticin (1 mg/ml).
In preparation of the assay, the two cell lines were plated 24 hrs before beginning the test at 10000 cells per well in a 384 micro titre plate (MTP) in 30 μl growth medium. […] The recombinant human Wnt-3a was thereby applied between 2500 and 5 ng/ml in two-fold dilution steps.
Selective inhibitory activity for small molecules on the wildtype Wnt pathway was determined after parallel incubation of both (TOP and FOP) HEK293 reporter cell lines with a compound dilution series from 50 μM to 15 nM in steps of 3.16-fold dilutions in CAFTY buffer (130 mM sodium chloride, 5 mM potassium chloride, 20 mM HEPES, 1 mM magnesium chloride, 5 mM sodium bicarbonate, pH 7.4) containing 2 mM Ca^2+ and 0.01% BSA.
The compounds were thereby serially prediluted in 100% DMSO and thereafter 50 fold into the CAFTY compound dilution buffer (described above).

[2] = test system: wildtype Wnt signaling cascade; experiment: HEK293 TOP Assay (Super TopFlash luciferase reporter, Wnt-3a stimulated); format: cell-based; details: Homo sapiens, HEK293, 16 h
Method in brief: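 HEK293 cells stably carrying Super TopFlash (TOP) or FOP reporter, stimulated with recombinant human Wnt-3a (2500–5 ng/ml, two-fold steps). Both lines incubated in parallel with compound from 50 μM to 15 nM (3.16-fold) in CAFTY buffer pH 7.4 with 2 mM Ca2+ and 0.01% BSA; selectivity judged TOP vs FOP.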

[3] = HEK293 TOP reporter cell line, Wnt-3a at EC50, 16 hours incubation, compound dilution series 50 μM to 15 nM
[4] = HEK293 FOP control reporter cell line, 16 hours incubation, compound dilution series 50 μM to 15 nM

Structure (SMILES) | IC50 (TNKS2) | IC50 ([1]; HEK293 FOP control reporter cells, 16 hours, luciferase, dilution series from 50 μM) | IC50 [2, 3] | IC50 ([2]; HEK293 TOP reporter cells, Wnt3a at EC50, 16 hours, luciferase) | IC50 [1, 4]
CNC(=O)c1nc[nH]c1C(=O)Nc1ccc(NC(=O)c2cccnc2Cl)cc1 [Example 2, N^5-(4-{[(2-chloropyridin-3-yl)carbonyl]amino}phenyl)-N^4-methyl-1H-imidazole-4,5-dicarboxamide] | > 10 µM | ≥ 50 µM | 7.05 µM | 6.1 µM | 
CNC(=O)c1nc[nH]c1C(=O)Nc1ccc(NC(=O)c2ccccc2S(C)(=O)=O)cc1 [Example 249, N^4-methyl-N^5-(4-{[2-(methylsulfonyl)benzoyl]amino}phenyl)-1H-imidazole-4,5-dicarboxamide] | 5.7 µM |  | 2.4 µM |  | 
CCNC(=O)c1nc[nH]c1C(=O)Nc1ccc(NC(=O)c2ccc(OC(F)F)cc2F)cc1 [Example 258, N^5-(4-{[4-(difluoromethoxy)-2-fluorobenzoyl]amino}phenyl)-N^4-ethyl-1H-imidazole-4,5-dicarboxamide] | > 10 µM |  | 4.5 µM |  | 
CCNC(=O)c1nc[nH]c1C(=O)Nc1ccc(NC(=O)c2ccc(OC(F)(F)F)cc2F)cc1 [Example 262, N^4-ethyl-N^5-(4-{[2-fluoro-4-(trifluoromethoxy)benzoyl]amino}phenyl)-1H-imidazole-4,5-dicarboxamide] | > 10 µM |  | 8.7 µM |  | 
CNC(=O)c1nc[nH]c1C(=O)Nc1ccc(NC(=O)c2cc(C)ccc2C)cc1 [Example 307, N^5-{4-[(2,5-dimethylbenzoyl)amino]phenyl}-N^4-methyl-1H-imidazole-4,5-dicarboxamide] |  |  | 1.08 µM |  | 18 µM
CNC(=O)c1nc[nH]c1C(=O)Nc1ccc(NC(=O)c2cccc(C(F)(F)F)c2)cc1 [Example 314, N^4-methyl-N^5-(4-{[3-(trifluoromethyl)benzoyl]amino}phenyl)-1H-imidazole-4,5-dicarboxamide] |  |  | 6.9 µM |  | 24 µM
CNC(=O)c1nc[nH]c1C(=O)Nc1ccc(NC(=O)c2ccc(N(C)C)cc2)cc1 [Example 315, N^5-(4-{[4-(dimethylamino)benzoyl]amino}phenyl)-N^4-methyl-1H-imidazole-4,5-dicarboxamide] |  |  | 14 µM |  | 41 µM
CNC(=O)c1nc[nH]c1C(=O)Nc1ccc(NC(=O)c2cccc(F)c2F)cc1 [Example 319, N^5-{4-[(2,3-difluorobenzoyl)amino]phenyl}-N^4-methyl-1H-imidazole-4,5-dicarboxamide] |  |  | 8.9 µM |  | 37 µM
CNC(=O)c1nc[nH]c1C(=O)Nc1ccc(NC(=O)c2cccc(Cl)c2)cc1 [Example 325, N^5-{4-[(3-chlorobenzoyl)amino]phenyl}-N^4-methyl-1H-imidazole-4,5-dicarboxamide] |  |  | 4.9 µM |  | 10 µM
CNC(=O)c1nc[nH]c1C(=O)Nc1ccc(NC(=O)c2ccccc2F)cc1 [Example 326, N^5-{4-[(2-fluorobenzoyl)amino]phenyl}-N^4-methyl-1H-imidazole-4,5-dicarboxamide] | > 10 µM |  | 3 µM |  | 
CNC(=O)c1nc[nH]c1C(=O)Nc1ccc(NC(=O)c2cc(Cl)cc(Cl)c2)cc1 [Example 327, N^5-{4-[(3,5-dichlorobenzoyl)amino]phenyl}-N^4-methyl-1H-imidazole-4,5-dicarboxamide] |  |  | 39.5 µM |  | 37 µM
CNC(=O)c1nc[nH]c1C(=O)Nc1ccc(NC(=O)c2cccc(Cl)c2C)cc1 [Example 341, N^5-{4-[(3-chloro-2-methylbenzoyl)amino]phenyl}-N^4-methyl-1H-imidazole-4,5-dicarboxamide] |  |  | 2.65 µM |  | 45 µM
CCN(CC)CCCC(C)NC(=O)c1nc[nH]c1C(=O)Nc1ccc(NC(=O)c2ccc(F)cc2Cl)cc1 (stereo not shown) [Example 380, N^5-{4-[(2-chloro-4-fluorobenzoyl)amino]phenyl}-N^4-[5-(diethylamino)pentan-2-yl]-1H-imidazole-4,5-dicarboxamide] |  |  | 0.47 µM |  | 24 µM
